The source of these data is patent publication US9474790B2, “Stable, protracted GLP-1/glucagon receptor co-agonists for medical use” (Novo Nordisk A/S, priority 2013, dated 2016).

Data set [1] in a line: Chemical stability assessment by RP-UPLC. Type of data set: physicochemical. The following applies: 333 μM, 8 mM phosphate buffer pH 7.3, 37° C. vs 5° C. As to the method:
The purpose of this assay was to assess the chemical stability of the glucagon derivatives of the invention in aqueous solutions.
Chemical stability of glucagon derivatives or analogues was investigated by RP-UPLC separation and UV detection. Lyophilized samples were dissolved in a 8 mM Phosphate buffer pH 8.6, followed by adjustment to pH 7.3.using HCl to a final concentration of 333 μM. Samples were incubated for 14 days at 5° C. and 37° C. followed by RP-UPLC analysis. Purity was defined as the area percentage of the main peak in relation to the total area of all integrated peaks in each chromatogram. Purity loss after 14 days at 37° C. was determined as the difference in purity between the samples incubated at 5° C. and 37° C., divided by the purity of the sample after incubation for 14 days at 5° C.
RP-UPLC analysis was performed using a Waters BEH130 2.1 mm×150 mm, 1.7 μm column operated at 50° C. and a flow rate of 0.4 mL/min using a mobile phase system consisting of A: 0.05% TFA in MQ-water B: 0.05% TFA in Acetonitrile. UV-detection was performed at 215 nm. The typical gradient profile used for most of the samples is shown below.
For some individual derivatives or analogues eluting at substantially different retention times compared with the majority of derivatives or analogues, some adjustments to the gradient profile were made to better enable purity assessment comparison across samples. The data confirmed the improved chemical stability of the glucagon derivatives of this invention.

For another data set, the target named is T1, human GLP-1 receptor (Homo sapiens, UniProt P43220).
T1 construct: expressed in transfected cells; host or cells: BHK cells (parent BHKTS13), clone FCW467-12A/KZ10-1, with CRE luciferase
Briefly: GLP-1 receptor binding, 125I-GLP-1 displacement SPA on isolated membranes. The following applies: displacement of 125I-GLP-1 from membranes; read-out: IC50 GLP-1R. In outline: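 Test derivatives, serially diluted, competed with 125I-GLP-1(7-36)NH2 for the human GLP-1 receptor on BHK membranes, read by WGA-bead scintillation proximity after 2 h at 30°C, pH 7.4 HEPES/EGTA/MgCl2 buffer. Final serum albumin was either ≤0.001% or 2.0%; IC50 from non-linear fit.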

Numbered stars: 1 amine (or outer) side, 2 acyl side, 3 side chain; on linkers, the order of the positions; unused ones are H or OH. Square brackets hold non-standard residues; d marks the D form. Side chains are listed from the residue outwards. Peptide text beside a SMILES is read from it. * marks the point of attachment. C18 diacid = O=C(O)CCCCCCCCCCCCCCCCC(=O)*; γGlu = O=C(O)[C@H](CCC(=O)[*:2])N[*:1]; Ac4c = NC1(C(=O)O)CCC1; AEEA = NCCOCCOCC(=O)O; Aib = CC(C)(N)C(=O)O

T1 sequence (P43220 24-463): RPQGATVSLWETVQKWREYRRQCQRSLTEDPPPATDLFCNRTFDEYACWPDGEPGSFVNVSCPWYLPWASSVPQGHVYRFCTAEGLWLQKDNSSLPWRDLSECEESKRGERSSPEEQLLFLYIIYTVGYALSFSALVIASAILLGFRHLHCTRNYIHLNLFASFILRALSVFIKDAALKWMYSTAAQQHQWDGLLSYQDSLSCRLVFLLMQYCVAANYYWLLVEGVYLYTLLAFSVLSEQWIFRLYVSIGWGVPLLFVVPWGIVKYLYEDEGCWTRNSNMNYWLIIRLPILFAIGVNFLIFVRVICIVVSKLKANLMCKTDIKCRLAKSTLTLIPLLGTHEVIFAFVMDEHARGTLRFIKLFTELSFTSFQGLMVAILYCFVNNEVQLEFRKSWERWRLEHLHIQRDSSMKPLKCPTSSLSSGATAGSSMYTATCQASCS

Broadly, the IC50 is the concentration at which inhibition is half-maximal. On to `CC(C)C[C@H](NC(=O)[C@H](CC(C)C)NC(=O)[C@H](Cc1c[nH]c2ccccc12)NC(=O)[C@H](CCC(N)=O)NC(=O)[C@@H](NC(=O)[C@H](Cc1ccccc1)NC(=O)[C@H](CCC(=O)O)NC(=O)[C@H](CCC(N)=O)NC(=O)[C@H](C)NC(=O)[C@H](C)NC(=O)[C@H](CCCCN)NC(=O)[C@H](CO)NC(=O)[C@H](CC(=O)O)NC(=O)[C@H](CC(C)C)NC(=O)[C@H](Cc1ccc(O)cc1)NC(=O)[C@H](CCCCN)NC(=O)[C@H](CO)NC(=O)[C@H](CC(C)C)NC(=O)[C@H](CC(=O)O)NC(=O)[C@H](CO)NC(=O)[C@@H](NC(=O)[C@H](Cc1ccccc1)NC(=O)[C@@H](NC(=O)CNC(=O)[C@H](CCC(N)=O)NC(=O)C(C)(C)NC(=O)[C@@H](N)Cc1c[nH]cn1)[C@@H](C)O)[C@@H](C)O)C(C)C)C(=O)N[C@@H](CC(N)=O)C(=O)N[C@@H](CCCCNC(=O)CC[C@H](NC(=O)CC[C@H](NC(=O)COCCOCCNC(=O)COCCOCCNC(=O)CC[C@H](NC(=O)CCCCCCCCCCCCCCCCC(=O)O)C(=O)O)C(=O)O)C(=O)O)C(N)=O` [Example 8, N^ε29-[(4S)-4-carboxy-4-[[(4S)-4-carboxy-4-[[2-[2-[2-[[2-[2-[2-[[(4S)-4-carboxy-4-(17-carboxyheptadecanoylamino)butanoyl]amino]ethoxy]ethoxy]acetyl]amino]ethoxy]ethoxy]acetyl]amino]butanoyl]amino]butanoyl]-[Aib2,Leu10,Lys17,Ala18,Glu21,Leu27,Lys29]-Glucagon amide] (H-H[Aib]QGTFTSDLSKYLDSKAAQEFVQWLLNK([γGlu-γGlu-AEEA-AEEA-γGlu-C18 diacid])-NH2; N-terminus assumed), for which, in data set [1], the “Purity loss; 14 days at 37° C.” value is 9%. Also, the IC50 at human GLP-1 receptor was 1.1 nM.
Taken in the same sequence, the figures for `CC(C)C[C@H](NC(=O)[C@H](CC(C)C)NC(=O)[C@H](Cc1c[nH]c2ccccc12)NC(=O)[C@H](CCC(N)=O)NC(=O)[C@@H](NC(=O)[C@H](Cc1ccccc1)NC(=O)[C@H](CCC(=O)O)NC(=O)[C@H](CCCNC(=N)N)NC(=O)[C@H](C)NC(=O)[C@H](CCCNC(=N)N)NC(=O)[C@H](CCCNC(=N)N)NC(=O)[C@H](CO)NC(=O)[C@H](CC(=O)O)NC(=O)[C@H](CC(C)C)NC(=O)[C@H](Cc1ccc(O)cc1)NC(=O)[C@H](CCCCN)NC(=O)[C@H](CO)NC(=O)[C@H](CC(C)C)NC(=O)[C@H](CC(=O)O)NC(=O)[C@H](CO)NC(=O)[C@@H](NC(=O)[C@H](Cc1ccccc1)NC(=O)[C@@H](NC(=O)CNC(=O)[C@H](CCC(N)=O)NC(=O)C(C)(C)NC(=O)[C@@H](N)Cc1c[nH]cn1)[C@@H](C)O)[C@@H](C)O)C(C)C)C(=O)N[C@@H](CC(N)=O)C(=O)N[C@@H](CCCCNC(=O)CC[C@H](NC(=O)CC[C@H](NC(=O)COCCOCCNC(=O)COCCOCCNC(=O)CC[C@H](NC(=O)CCCCCCCCCCCCCCCCC(=O)O)C(=O)O)C(=O)O)C(=O)O)C(N)=O` [Example 12, N^ε29-[(4S)-4-carboxy-4-[[(4S)-4-carboxy-4-[[2-[2-[2-[[2-[2-[2-[[(4S)-4-carboxy-4-(17-carboxyheptadecanoylamino)butanoyl]amino]ethoxy]ethoxy]acetyl]amino]ethoxy]ethoxy]acetyl]amino]butanoyl]amino]butanoyl]-[Aib2,Leu10,Arg20,Glu21,Leu27,Lys29]-Glucagon amide] (H-H[Aib]QGTFTSDLSKYLDSRRAREFVQWLLNK([γGlu-γGlu-AEEA-AEEA-γGlu-C18 diacid])-NH2) were 8% and 0.5 nM.
On to `CC(C)C[C@H](NC(=O)[C@H](Cc1ccc(O)cc1)NC(=O)[C@H](CCCCN)NC(=O)[C@H](CO)NC(=O)[C@H](CC(C)C)NC(=O)[C@H](CC(=O)O)NC(=O)[C@H](CO)NC(=O)[C@@H](NC(=O)[C@H](Cc1ccccc1)NC(=O)[C@@H](NC(=O)CNC(=O)[C@H](CCC(N)=O)NC(=O)C1(NC(=O)[C@@H](N)Cc2c[nH]cn2)CCC1)[C@@H](C)O)[C@@H](C)O)C(=O)N[C@@H](CCC(=O)O)C(=O)N[C@@H](CO)C(=O)N[C@@H](CCCNC(=N)N)C(=O)N[C@@H](CCCNC(=N)N)C(=O)N[C@@H](C)C(=O)N[C@@H](CCCNC(=N)N)C(=O)N[C@@H](CCC(=O)O)C(=O)N[C@@H](Cc1ccccc1)C(=O)N[C@H](C(=O)N[C@@H](CCC(N)=O)C(=O)N[C@@H](Cc1c[nH]c2ccccc12)C(=O)N[C@@H](CC(C)C)C(=O)N[C@@H](CC(C)C)C(=O)N[C@@H](CCCCNC(=O)CC[C@H](NC(=O)CC[C@H](NC(=O)COCCOCCNC(=O)COCCOCCNC(=O)CC[C@H](NC(=O)CC[C@H](NC(=O)CCCCCCCCCCCCCCCCC(=O)O)C(=O)O)C(=O)O)C(=O)O)C(=O)O)C(=O)N[C@H](C(N)=O)[C@@H](C)O)C(C)C` [Example 61, N^ε28-[(4S)-4-carboxy-4-[[(4S)-4-carboxy-4-[[2-[2-[2-[[2-[2-[2-[[(4S)-4-carboxy-4-[[(4S)-4-carboxy-4-(17-carboxyheptadecanoylamino)butanoyl]amino]butanoyl]amino]ethoxy]ethoxy]acetyl]amino]ethoxy]ethoxy]acetyl]amino]butanoyl]amino]butanoyl]-[Acb2,Leu10,Glu15,Arg20,Glu21,Leu27,Lys28]-Glucagon amide] (H-H[Ac4c]QGTFTSDLSKYLESRRAREFVQWLLK([γGlu-γGlu-AEEA-AEEA-γGlu-γGlu-C18 diacid])T-NH2; N-terminus assumed), for which the IC50 at human GLP-1 receptor came out at 0.3 nM.
For `CC(C)C[C@H](NC(=O)[C@H](Cc1ccc(O)cc1)NC(=O)[C@H](CCCNC(=N)N)NC(=O)[C@H](CO)NC(=O)[C@H](CC(C)C)NC(=O)[C@H](CC(=O)O)NC(=O)[C@H](CO)NC(=O)[C@@H](NC(=O)[C@H](Cc1ccccc1)NC(=O)[C@@H](NC(=O)CNC(=O)[C@H](CCC(N)=O)NC(=O)C(C)(C)NC(=O)[C@@H](N)Cc1c[nH]cn1)[C@@H](C)O)[C@@H](C)O)C(=O)N[C@@H](CC(=O)O)C(=O)N[C@@H](C)C(=O)N[C@@H](CCCNC(=N)N)C(=O)N[C@@H](CCCNC(=N)N)C(=O)N[C@@H](C)C(=O)N[C@@H](CCCNC(=N)N)C(=O)N[C@@H](CC(=O)O)C(=O)N[C@@H](Cc1ccccc1)C(=O)N[C@H](C(=O)N[C@@H](CCC(N)=O)C(=O)N[C@@H](Cc1c[nH]c2ccccc12)C(=O)N[C@@H](CC(C)C)C(=O)N[C@@H](CC(C)C)C(=O)N[C@@H](CCCCNC(=O)CC[C@H](NC(=O)CC[C@H](NC(=O)CC[C@H](NC(=O)CCCCCCCCCCCCCCCCC(=O)O)C(=O)O)C(=O)O)C(=O)O)C(=O)N[C@H](C(N)=O)[C@@H](C)O)C(C)C` [Example 62, N^ε28-[(4S)-4-carboxy-4-[[(4S)-4-carboxy-4-[[(4S)-4-carboxy-4-(17-carboxyheptadecanoylamino)butanoyl]amino]butanoyl]amino]butanoyl]-[Aib2,Leu10,Arg12,Ala16,Arg20,Leu27,Lys28]-Glucagon amide] (H-H[Aib]QGTFTSDLSRYLDARRARDFVQWLLK([γGlu-γGlu-γGlu-C18 diacid])T-NH2; N-terminus assumed), at human GLP-1 receptor, the IC50 came to 0.2 nM.
For `CC(C)C[C@H](NC(=O)[C@H](Cc1ccc(O)cc1)NC(=O)[C@H](CCCCN)NC(=O)[C@H](CO)NC(=O)[C@H](CC(C)C)NC(=O)[C@H](CC(=O)O)NC(=O)[C@H](CO)NC(=O)[C@@H](NC(=O)[C@H](Cc1ccccc1)NC(=O)[C@@H](NC(=O)CNC(=O)[C@H](CCC(N)=O)NC(=O)C1(NC(=O)[C@@H](N)Cc2c[nH]cn2)CCC1)[C@@H](C)O)[C@@H](C)O)C(=O)N[C@@H](CCC(=O)O)C(=O)N[C@@H](CO)C(=O)N[C@@H](CCCNC(=N)N)C(=O)N[C@@H](CCCNC(=N)N)C(=O)N[C@@H](C)C(=O)N[C@@H](CCC(N)=O)C(=O)N[C@@H](CC(=O)O)C(=O)N[C@@H](Cc1ccccc1)C(=O)N[C@H](C(=O)N[C@@H](CCC(N)=O)C(=O)N[C@@H](Cc1c[nH]c2ccccc12)C(=O)N[C@@H](CC(C)C)C(=O)N[C@@H](CC(C)C)C(=O)N[C@@H](CCCCNC(=O)COCCOCCNC(=O)COCCOCCNC(=O)CC[C@H](NC(=O)CC[C@H](NC(=O)CC[C@H](NC(=O)CCCCCCCCCCCCCCCCC(=O)O)C(=O)O)C(=O)O)C(=O)O)C(=O)N[C@H](C(N)=O)[C@@H](C)O)C(C)C` [Example 63, N^ε28-[2-[2-[2-[[2-[2-[2-[[(4S)-4-carboxy-4-[[(4S)-4-carboxy-4-[[(4S)-4-carboxy-4-(17-carboxyheptadecanoylamino)butanoyl]amino]butanoyl]amino]butanoyl]amino]ethoxy]ethoxy]acetyl]amino]ethoxy]ethoxy]acetyl]-[Acb2,Leu10,Glu15,Leu27,Lys28]-Glucagon amide] (H-H[Ac4c]QGTFTSDLSKYLESRRAQDFVQWLLK([AEEA-AEEA-γGlu-γGlu-γGlu-C18 diacid])T-NH2; N-terminus assumed), the “Purity loss; 14 days at 37° C.” value in data set [1] came to 1%.
